Results published in PMC12095047, “Transport of phenoxyacetic acid herbicides by PIN-FORMED auxin transporters” (Nature Plants, 2025).
Several values for one entry are separate records, joined by “and”; a condition that tells them apart may be missing. Equal entries are not always repeated.

Columns and labels:
PIN8 [1] = target: T1, PIN8 (Arabidopsis thaliana, UniProt Q9LFP6); test: Xenopus oocyte efflux assay, PIN8; format: cell-based; conditions: for Rel. IAA transport rate: [3H]-IAA export by PIN8 from oocytes; for Rel. IAA transport rate / Rel. 2,4-D transport rate: individual experiments; for Rel. 2,4-D transport rate: [3H]-2,4-D export by PIN8 from oocytes
T1 construct: made in house
T1 sequence (Q9LFP6 1-367): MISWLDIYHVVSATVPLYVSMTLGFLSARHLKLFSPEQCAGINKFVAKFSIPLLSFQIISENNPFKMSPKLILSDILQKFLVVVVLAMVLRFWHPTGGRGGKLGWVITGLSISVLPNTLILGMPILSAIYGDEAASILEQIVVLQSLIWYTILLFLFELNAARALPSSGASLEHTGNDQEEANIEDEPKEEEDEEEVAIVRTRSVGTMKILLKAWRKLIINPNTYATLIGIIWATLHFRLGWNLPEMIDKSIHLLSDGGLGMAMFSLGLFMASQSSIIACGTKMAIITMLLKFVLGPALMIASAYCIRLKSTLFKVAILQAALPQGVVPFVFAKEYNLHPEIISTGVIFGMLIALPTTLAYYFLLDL
Procedure: Oocyte efflux experiments were carried out as described[12],[20],[26]. Briefly, oocytes were injected with 150 ng transporter complementary RNA without or with 75 ng kinase cRNA. [^3H]-IAA (25 Ci mmol^−1) and [^3H]-4-CPA (37.7 Ci mmol^−1) was purchased from RC Tritec. [^3H]-2,4-D (25 Ci mmol^−1) was purchased from ARC. Oocytes were injected with substrate to reach an internal concentration of 1 µM, corresponding to 100%. Residual radioactivity was determined for each individual oocyte by liquid scintillation counting after the time points indicated and are expressed relative to the initial 100%. Each time point represents the mean and s.e. of ten oocytes. To calculate the relative transport rate in percentage per minute, linear regression was performed. Each data point in Fig. 1b,c and Extended Data Fig. 2b,e represents the transport rate of one biological replicate using oocytes collected from different Xenopus females.

PIN8 [2] = target: T1, PIN8; parameters: method as in PMID 35768502; conditions: read-out: IAA binding affinity KD, previously described; cited from earlier work
[3] = cited from earlier work
[4] = tested on: A. thaliana stem segments of wild type; test: Arabidopsis stem transport assay, Col-0 wild type; format: in vivo, Arabidopsis thaliana; conditions: for CPM: WT;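 as to CPM: Segments numbered apical to basal with Segment 1 nearest the apical end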
Procedure: (§1) Arabidopsis stem transport assays were carried out as described. Briefly, 2 cm stem sections were cut above the rosette of 5-week-old plants and placed in inverted orientation into auxin transport buffer containing 500 pM IAA, 1% (wt/vol) sucrose, 5 mM 2-(N-morpholino)ethanesulfonic acid, pH 5.5 with or without 100 μM NPA. After 2 h the stems were transferred into auxin transport buffer containing 417 nM [^3H]-IAA or [^3H]-2,4-D as a substrate in the absence and presence of NPA. After 2 h, 5 mm segments were dissected, and the substrate was quantified using a liquid scintillation counter.

[5] = tested on: A. thaliana stem segments of pin1 mutants; test: Arabidopsis stem transport assay, pin1 mutant; format: in vivo, Arabidopsis thaliana
Procedure: as §1

O=C(O)Cc1c[nH]c2ccccc12 [IAA, indole-3-acetic acid]
Rel. IAA transport rate (PIN8 [1]; NPA + (10 μM)): 0.4862 % exported/min and 0.4056 % exported/min and 0.4406 % exported/min | Rel. IAA transport rate (PIN8 [1]; NPA -): 2.069 % exported/min and 2.225 % exported/min and 1.917 % exported/min | Kd (PIN8 [2]): 40 ± 15 µM | acid dissociation constant pKa [3]: 4.7 | CPM ([4]; sheet EDF2H, + NPA, Segment 1, single stems): 342 CPM and 190 CPM and 344 CPM and 366 CPM and 333 CPM | CPM ([4]; sheet EDF2H, + NPA, Segment 2, single stems): 98 CPM and 93 CPM and 124 CPM and 114 CPM | CPM ([4]; sheet EDF2H, + NPA, Segment 3, single stems): 125 CPM and 94 CPM and 137 CPM and 146 CPM and 104 CPM | CPM ([4]; sheet EDF2H, - NPA, Segment 3, single stems): 181 CPM and 109 CPM and 111 CPM and 125 CPM and 156 CPM | CPM ([5]; sheet EDF2H, pin1, + NPA, Segment 2, single stems): 103 CPM and 109 CPM and 91 CPM and 134 CPM and 78 CPM | CPM ([5]; sheet EDF2H, pin1, + NPA, Segment 3, single stems): 70 CPM and 80 CPM and 98 CPM and 135 CPM and 76 CPM | CPM ([5]; sheet EDF2H, pin1, - NPA, Segment 3, single stems): 119 CPM and 97 CPM and 69 CPM and 107 CPM and 82 CPM

O=C(O)COc1ccc(Cl)cc1Cl [2,4-D, 2,4-dichlorophenoxyacetic acid]
transport rate of export from oocytes relative to IAA (PIN8 [1]; PIN8, NPA-sensitive export): about half of that determined for IAA | Rel. 2,4-D transport rate (PIN8 [1]; NPA + (10 μM)): 0.7325 % exported/min and 0.3331 % exported/min and 0.3715 % exported/min and 0.009798 % exported/min | Rel. 2,4-D transport rate (PIN8 [1]; NPA -): 1.122 % exported/min and 0.7012 % exported/min and 0.7258 % exported/min and 0.8004 % exported/min | acid dissociation constant pKa [3]: 2.73 | CPM ([4]; sheet EDF2I, + NPA, Segment 2, single stems): 33 CPM and 25 CPM and 26 CPM and 39 CPM | CPM ([4]; sheet EDF2I, + NPA, Segment 3, single stems): 20 CPM and 21 CPM and 33 CPM and 30 CPM | CPM ([4]; sheet EDF2I, - NPA, Segment 1, single stems): 76 CPM and 115 CPM and 77 CPM and 107 CPM | CPM ([4]; sheet EDF2I, - NPA, Segment 2, single stems): 35 CPM and 37 CPM and 34 CPM and 29 CPM and 30 CPM | CPM ([4]; sheet EDF2I, - NPA, Segment 3, single stems): 29 CPM and 37 CPM and 35 CPM and 26 CPM and 28 CPM | transport in stem segments, lower than IAA transport ([4]; wild-type plants): about 20 fold | transport in stem segments ([5]; pin1 mutants): completely abolished | CPM ([5]; sheet EDF2I, pin1, + NPA, Segment 1, single stems): 52 CPM and 51 CPM and 42 CPM and 38 CPM | CPM ([5]; sheet EDF2I, pin1, + NPA, Segment 2, single stems): 52 CPM and 31 CPM and 27 CPM and 33 CPM | CPM ([5]; sheet EDF2I, pin1, - NPA, Segment 2, single stems): 18 CPM and 32 CPM and 22 CPM and 34 CPM and 25 CPM
